Where “and” joins values, the source holds several entries; their conditions need not be identical. Identical values can stand only once.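 Exposure lasted 48 hours, with cells grown in 96-well plates and compounds tested at five concentrations. GI50 = concentration required for 50% inhibition of growth.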 Calls of active or inactive are those of the source. Rule as the data show it: active = GI50 up to about 1.1 µM and inactive = higher.
Tests used:
Assay in all cases: NCI anticancer screen, dose series, 48 h
DMS-114 = system: DMS-114
DMS-273 = system: DMS-273
KM-20L2 = system: KM-20L2
LXFL 529 = system: LXFL 529
M19-MEL = system: M19-MEL
DLD-1 = system: DLD-1
SNB-78 = system: SNB-78
XF498 = system: XF498
RXF 631 = system: RXF 631

Compound	GI50 (DMS-114)	GI50 (DMS-273)	GI50 (KM-20L2)	GI50 (LXFL 529)	GI50 (M19-MEL)	GI50 (DLD-1)	GI50 (SNB-78)	GI50 (XF498)	GI50 (RXF 631)
OC1c2ccccc2C2(O)C1C(c1ccccc1)C(c1ccccc1)C2(O)c1ccccc1 (stereo not drawn)	13.6 µM (inactive)	7.48 µM (inactive)	8.83 µM (inactive)	9.82 µM (inactive)	15.1 µM (inactive)	–	–	–	–
C/C(=N\OCC(O)CNC(C)C)c1ccc2c(c1)NC(=O)CS2 (stereo not drawn)	> 100 µM (inactive)	–	> 100 µM (inactive)	> 100 µM (inactive)	> 100 µM (inactive)	> 100 µM (inactive)	> 100 µM (inactive)	> 100 µM (inactive)	–
c1ccc(C2Nc3ccccc3C3OCCCC23)cc1 (stereo not drawn)	21.1 µM (inactive)	28.2 µM (inactive)	18.4 µM (inactive)	7.78 µM (inactive)	42.6 µM (inactive)	18.9 µM (inactive)	23.9 µM (inactive)	56.5 µM (inactive)	35.7 µM (inactive)
Cc1cc(C)nc(NS(=O)(=O)c2ccc(NC(=O)c3cccc4c(Nc5ccc(S(=O)(=O)Nc6nc(C)cc(C)n6)cc5)c5ccc(Cl)cc5nc34)cc2)n1	25.1 µM (inactive)	77.6 µM (inactive)	40.5 µM (inactive)	33 µM (inactive)	37.8 µM (inactive)	33.7 µM (inactive)	39.4 µM (inactive)	23.1 µM (inactive)	–
COC(=O)[C@]1(C)CCC[C@]2(C)C3CC4OOC3(C=C4C(C)C)CCC21 (stereo partly drawn)	13.7 µM (inactive)	18.5 µM (inactive)	17.9 µM (inactive)	13.7 µM (inactive)	–	12.7 µM (inactive)	16.5 µM (inactive)	–	–
CCOC(=O)CCC1(C(=O)OC)CCCC1=O (stereo not drawn)	> 100 µM (inactive)	> 100 µM (inactive)	> 100 µM (inactive)	> 100 µM (inactive)	> 100 µM (inactive)	> 100 µM (inactive)	> 100 µM (inactive)	> 100 µM (inactive)	–
CCC(C)NC1=C(NC(C)=O)C(=O)c2ccccc2C1=O (stereo not drawn)	28.4 µM (inactive)	27.6 µM (inactive)	> 75 µM (inactive)	54.8 µM (inactive)	48.3 µM (inactive)	27.4 µM (inactive)	> 75 µM (inactive)	> 75 µM (inactive)	–
Cc1ccc(/C=N/NS(=O)(=O)c2ccccc2)c(C)c1	> 100 µM (inactive)	> 100 µM (inactive)	> 100 µM (inactive)	> 100 µM (inactive)	> 100 µM (inactive)	> 100 µM (inactive)	> 100 µM (inactive)	> 100 µM (inactive)	> 100 µM (inactive)
CCOC(=O)C(Cc1ccc([N+](=O)[O-])cc1)NC(=O)CC1c2ccccc2-c2ccccc21 (stereo not drawn)	37.6 µM (inactive)	63.5 µM (inactive)	> 100 µM (inactive)	> 100 µM (inactive)	18.9 µM (inactive)	> 100 µM (inactive)	23.8 µM (inactive)	20.8 µM (inactive)	–
Cc1cn(Cc2ccccc2CCO)c(=S)[nH]c1=O	> 100 µM (inactive)	> 100 µM (inactive)	> 100 µM (inactive)	> 100 µM (inactive)	> 100 µM (inactive)	–	–	> 100 µM (inactive)	> 100 µM (inactive)
CC(=O)OCC1OC(N2C(=O)C(=O)c3cc(C)ccc32)C(OC(C)=O)C(OC(C)=O)C1OC(C)=O (stereo not drawn)	> 100 µM (inactive)	> 100 µM (inactive)	60.5 µM (inactive)	> 100 µM (inactive)	50.7 µM (inactive)	56 µM (inactive)	> 100 µM (inactive)	–	–
O=C1c2ccccc2-c2c3c(cc4ccnc1c24)OCO3 [LIRIODENINE]	–	3.44 µM (inactive) and 5.46 µM (inactive)	7.14 µM (inactive) and 5.82 µM (inactive)	5.89 µM (inactive) and 6.52 µM (inactive)	5.86 µM (inactive) and 3.75 µM (inactive)	4.49 µM (inactive) and 4.05 µM (inactive)	–	5.75 µM (inactive) and 4.69 µM (inactive)	–
COc1cc(CC(C)N)ccc1O (stereo not drawn)	> 100 µM (inactive)	> 100 µM (inactive)	> 100 µM (inactive)	> 100 µM (inactive)	–	> 100 µM (inactive)	> 100 µM (inactive)	> 100 µM (inactive)	> 100 µM (inactive)
Cc1c2c(c(C)c3c1[nH]c1ccccc13)CN(C)CC2	15.1 µM (inactive)	16.7 µM (inactive)	18.8 µM (inactive)	14.9 µM (inactive)	16.6 µM (inactive)	34.4 µM (inactive)	21.9 µM (inactive)	–	22.8 µM (inactive)
Cc1ccc(NC(=O)CCc2nnc3s/c(=C\C=C\c4ccccc4)c(=O)n23)cc1	> 100 µM (inactive)	> 100 µM (inactive)	> 100 µM (inactive)	60.7 µM (inactive)	67.5 µM (inactive)	> 100 µM (inactive)	> 71 µM (inactive)	> 100 µM (inactive)	> 82.4 µM (inactive)
COC(=O)c1c[nH]cc1CCCCc1c[nH]cc1C(=O)OC	–	> 100 µM (inactive)	> 100 µM (inactive)	–	> 100 µM (inactive)	–	> 100 µM (inactive)	50 µM (inactive)	> 100 µM (inactive)
Cc1cc(C)cc(NC(N)=S)c1	45.3 µM (inactive)	> 100 µM (inactive)	> 100 µM (inactive)	> 100 µM (inactive)	> 100 µM (inactive)	> 100 µM (inactive)	> 100 µM (inactive)	46.5 µM (inactive)	> 100 µM (inactive)
C=CCc1cc(OC)c2c(c1)C(O)CC(c1ccccc1)O2 (stereo not drawn)	> 100 µM (inactive)	> 100 µM (inactive)	78.3 µM (inactive)	> 100 µM (inactive)	> 100 µM (inactive)	> 100 µM (inactive)	> 100 µM (inactive)	–	> 100 µM (inactive)
COC(=O)C1CC/C(=N\c2cccc(C(F)(F)F)c2)N1 (stereo not drawn)	> 100 µM (inactive)	> 100 µM (inactive)	–	> 100 µM (inactive)	–	> 100 µM (inactive)	> 100 µM (inactive)	> 100 µM (inactive)	> 100 µM (inactive)
CCOC(=O)C1N(S(=O)(=O)c2ccc(C)cc2)CCC12C(c1ccc(OC)cc1)NC1CCCCC12 (stereo not drawn)	> 100 µM (inactive)	> 100 µM (inactive)	> 100 µM (inactive)	> 100 µM (inactive)	> 100 µM (inactive)	> 100 µM (inactive)	> 100 µM (inactive)	–	97.1 µM (inactive)
O=C(Cn1ccnc1[N+](=O)[O-])N(CCO)CCO	> 1250 µM (inactive)	> 1250 µM (inactive)	> 1250 µM (inactive)	–	> 1250 µM (inactive)	> 1250 µM (inactive)	> 1250 µM (inactive)	> 58.1 µM (inactive)	–
CCOC(=O)/C(=C/c1ccc(C(F)(F)F)cc1)N(CC)CC	30.8 µM (inactive)	–	–	51.6 µM (inactive)	–	54.1 µM (inactive)	81.8 µM (inactive)	58.1 µM (inactive)	> 100 µM (inactive)
COc1cc(C2c3cc4c(cc3[C@@H](Nc3ccc(F)cc3)C3COC(=O)[C@H]23)OCO4)cc(OC)c1O (stereo partly drawn)	2.64 µM (inactive)	0.891 µM (active)	2.08 µM (inactive)	6.67 µM (inactive)	4.21 µM (inactive)	3.79 µM (inactive)	8.65 µM (inactive)	2.95 µM (inactive)	–
O=C(O)C1Cc2[nH]cnc2CN1 (stereo not drawn)	> 100 µM (inactive)	> 100 µM (inactive)	> 100 µM (inactive)	> 100 µM (inactive)	> 100 µM (inactive)	> 100 µM (inactive)	> 100 µM (inactive)	–	> 100 µM (inactive)
O=C1C2C3CCC(C2C(=O)N1CO)C1C2C(=O)N(CO)C(=O)C2C31 (stereo not drawn)	25.6 µM (inactive)	36.1 µM (inactive)	> 52.6 µM (inactive)	55.3 µM (inactive)	1 µM (active)	45.4 µM (inactive)	> 100 µM (inactive)	> 100 µM (inactive)	–
Cc1ccc(C(=O)OCC(C)C)cc1/N=N/N(C)C	–	45.5 µM (inactive)	38.7 µM (inactive)	> 100 µM (inactive)	44 µM (inactive)	45.5 µM (inactive)	64.9 µM (inactive)	–	–
Sc1nnc(C(c2ccccc2)c2ccccc2)[nH]1	> 100 µM (inactive)	> 100 µM (inactive)	> 100 µM (inactive)	–	> 100 µM (inactive)	> 100 µM (inactive)	–	> 100 µM (inactive)	> 100 µM (inactive)
CC12c3ccccc3C(OC=O)(c3ccccc31)C1(C)c3ccccc3C2(OC=O)c2ccccc21	> 100 µM (inactive)	75.7 µM (inactive)	> 100 µM (inactive)	> 100 µM (inactive)	> 100 µM (inactive)	> 100 µM (inactive)	> 100 µM (inactive)	–	> 100 µM (inactive)
COc1ccc(N2C(=O)C3c4[nH]c5ccccc5c4C4CCCCCCC4C3C2=O)cc1 (stereo not drawn)	8.71 µM (inactive)	5.35 µM (inactive)	28.8 µM (inactive)	6.08 µM (inactive)	23.3 µM (inactive)	11.2 µM (inactive)	27.8 µM (inactive)	10.4 µM (inactive)	–
NC(=O)/C=C/c1c[nH]c2nccnc12	2.22 µM (inactive)	3.52 µM (inactive)	0.0723 µM (active)	0.103 µM (active)	3.27 µM (inactive)	2.13 µM (inactive)	–	–	–

From ChEMBL document CHEMBL1201862, “PubChem BioAssay data set” (2004)
